For 11 molecules, IC50 results are on record in US12459951B2, “Compounds that interact with RAS superfamily proteins for treatment of cancers, inflammatory diseases, rasopathies, and fibrotic disease” (SHY Therapeutics, LLC, priority 2022, dated 2025).

In the first assay the test system is MiaPaca-2 (expressing KRAS G12C mutant). The experiment in a line: Proliferation Assay (Cell Viability Assay). The class given is cell-based. The conditions noted are these: Homo sapiens, MIA PaCa-2; Proliferation assay, MiaPaca-2; read-out: MiaPaca-2 IC50 (nM) Pancreatic. The procedure, abridged: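 After 2–4 days' exposure at 37 °C, 5% CO2 to a single 10 μM final concentration or a dilution series (IC50), percent proliferation inhibition was derived from CellTiter 96 Aqueous One viability readings. The medium contained 0.3% DMSO and 10% FBS. KRAS G12C MiaPaca-2 cells were plated at 2000–5000/well the day before.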
For `COc1cc(Nc2nc(-c3nccn3C)nn3cc(-c4ccn(C)n4)c(C)c23)ncc1C` [Compound 235, N-(4-Methoxy-5-methylpyridin-2-yl)-5-methyl-2-(1-methyl-1H-imidazol-2-yl)-6-(1-methyl-1H-pyrazol-3-yl)pyrrolo[2,1-f][1,2,4]triazin-4-amine], the IC50 lay within 1 to 10 nM.

Still in this assay, the particulars now being: Homo sapiens, MIA PaCa-2; read-out: Proliferation in MiaPaca-2: IC50.
Regarding `COCCNC(=O)c1c(-c2ccn(C)n2)cn2nc(-c3nccn3C)nc(Nc3cc(OC)ccn3)c12` [Compound 176, N-(2-Methoxyethyl)-4-((4-methoxypyridin-2-yl)amino)-2-(1-methyl-1H-imidazol-2-yl)-6-(1-methyl-1H-pyrazol-3-yl)pyrrolo[2,1-f][1,2,4]triazine-5-carboxamide], the IC50 lay within 510 to 1000 nM. As for `CCOc1ccc(Nc2nc(-c3nccn3C)nn3cc(-c4ccn(C)n4)c(C)c23)nc1` [Compound 229, N-(5-Ethoxypyridin-2-yl)-5-methyl-2-(1-methyl-1H-imidazol-2-yl)-6-(1-methyl-1H-pyrazol-3-yl)pyrrolo[2,1-f][1,2,4]triazin-4-amine], the IC50 lay in the range of 150 to 500 nM. With `Cc1c(-c2ccn(C)n2)cn2nc(-c3nccn3C)nc(Nc3ccc(OC(F)F)cn3)c12` [Compound 231, N-(5-(Difluorometh-oxy)pyridin-2-yl)-5-methyl-2-(1-methyl-1H-imidazol-2-yl)-6-(1-methyl-1H-pyrazol-3-yl)pyrrolo[2,1-f][1,2,4]triazin-4-amine], the IC50 was < 150 nM. In the case of `Cc1c(-c2ccn(C)n2)cn2nc(-c3nccn3C)nc(Nc3ccc(OC(F)(F)F)cn3)c12` [Compound 232, 5-Methyl-2-(1-methyl-1H-imidazol-2-yl)-6-(1-methyl-1H-pyrazol-3-yl)-N-(5-(trifluoro-methoxy)pyridin-2-yl)pyrrolo[2,1-f][1,2,4]triazin-4-amine], the IC50 is < 150 nM. Take `COc1cc(Nc2nc(-c3nccn3C)nn3cc(-c4ccn(C)n4)c(C)c23)ncc1F` [Compound 237, N-(5-Fluoro-4-methoxypyridin-2-yl)-5-methyl-2-(1-methyl-1H-imidazol-2-yl)-6-(1-methyl-1H-pyrazol-3-yl)pyrrolo[2,1-f][1,2,4]triazin-4-amine]: the IC50 was < 150 nM. As for `COc1cc(Nc2nc(-c3nccn3C)nn3cc(-c4ccn(C)n4)c(C)c23)ncc1C` [Compound 235, N-(4-Methoxy-5-methylpyridin-2-yl)-5-methyl-2-(1-methyl-1H-imidazol-2-yl)-6-(1-methyl-1H-pyrazol-3-yl)pyrrolo[2,1-f][1,2,4]triazin-4-amine], the IC50 was < 150 nM. For the molecule `COc1ccnc(N(C)c2nc(-c3nccn3C)nn3cc(-c4ccn(C)n4)c(C)c23)c1` [Compound 223, N-(4-Methoxypyridin-2-yl)-N,5-dimethyl-2-(1-methyl-1H-imidazol-2-yl)-6-(1-methyl-1H-pyrazol-3-yl)pyrrolo[2,1-f][1,2,4]triazin-4-amine], the IC50 was > 1000 nM.

`Cc1c(-c2ccn(C)n2)cn2nc(-c3nccn3C)nc(N)c12` [Compound 211, 5-Methyl-2-(1-methyl-1H-imidazol-2-yl)-6-(1-methyl-1H-pyrazol-3-yl)pyrrolo[2,1-f][1,2,4]triazin-4-amine]: the IC50 is > 1000 nM. Consider `Cc1c(-c2ccn(C)n2)cn2nc(-c3nccn3C)nc(Nc3cc(C(C)(C)O)ccn3)c12` [Compound 240, 2-(2-((5-Methyl-2-(1-methyl-1H-imidazol-2-yl)-6-(1-methyl-1H-pyrazol-3-yl)pyrrolo[2,1-f][1,2,4]triazin-4-yl)amino)pyridin-4-yl)propan-2-ol], for which the IC50 is < 150 nM. In the case of `Cc1c(-c2ccn(C)n2)cn2nc(-c3nccn3C)nc(Nc3ccc(-n4ccnc4)cn3)c12` [Compound 242, N-(5-(1H-Imidazol-1-yl)pyridin-2-yl)-5-methyl-2-(1-methyl-1H-imidazol-2-yl)-6-(1-methyl-1H-pyrazol-3-yl)pyrrolo[2,1-f][1,2,4]triazin-4-amine], the IC50 was > 1000 nM. On to `Cc1c(-c2ccn(C)n2)cn2nc(-c3nccn3C)nc(Nc3ccc(C(C)(C)O)cn3)c12` [Compound 241, 2-(6-((5-Methyl-2-(1-methyl-1H-imidazol-2-yl)-6-(1-methyl-1H-pyrazol-3-yl)pyrrolo[2,1-f][1,2,4]triazin-4-yl)amino)pyridin-3-yl)propan-2-ol], for which the IC50 is > 1000 nM.
